Assay results taken from patent US7626044B2, “Triptolide derivatives and their uses” (priority 2002, dated 2009).
pEC50, pIC50: −log10 of the molar value. Converted amounts (≈) assume the structure as drawn.

Assays:
[1] = tested on: collagen-induced arthritis; experiment: Collagen-induced arthritis in DBA/1 mice; format: in vivo, mouse
B lymphocyte = experiment: LPS induced B-lymphocyte proliferation ([3H]thymidine); format: cell-based, mouse
Description: (§1) Mice were sacrificed by cervical dislocation, and spleens were collected under sterile conditions then teased through a nylon mesh. Erythrocytes were lysed. Cells were washed and resuspended at 5×10^6/ml in RPMI-1640 media containing 10% FBS. For one 96 well plate assay, 100 pt of cells, 50 μl of sample and 50 μl of ConA/LPS were added into each well with the final volume 200 μl. The control wells were set up with 50 μl of RPMI-1640 media instead of ConA/LPS.
(§2) Plates were incubated for 48 h (ConA) or 60 h (LPS), respectively, at 37° C., 5% CO2 in a humidified incubator. In the last 8 h of incubation, 25 μl (1.9×10^10 Bq) of [^3H]thymidine was added. After plates were incubated for 48 h, the plates (ConA) were stored at −20° C., then after another 12 h, the plates (LPS) were stored at −20° C.
(§3) At the end of incubation, pulsed cells were harvested on a glass filter using a cell harvester ([…]96®, TOMTEC) and allowed to dry. Incorporation of radioactive thymidine was determined by using liquid Scintillation and Luminescence Counters (MicroBeta Trilux®, PerkinElmer).

[2] = tested on: HO-8910 (human ovary cancer cells); experiment: Tumor cell proliferation, HO-8910; format: cell-based; conditions: read-out: Inhibitory effect on tumor cell proliferation IC50
[3] = tested on: splenocytes (C57BL/6 responder, Balb/c stimulator); experiment: MLR response of C57BL/6 against Balb/c; format: cell-based, mouse
Description: C57BL/6 and Balb/c mice were sacrificed by cervical dislocation, and spleens were collected under sterile conditions then teased through a nylon mesh. Erythrocytes were lysed. Cells were washed and resuspended at 6×10^6/ml in RPMI-1640 media with 10% FBS.
Splenocytes from responder (C57BL/6) were mixed with stimulator (Balb/c), which was pretreated with ^60Co Gamma Ray irradiation (3000 rads).
Stimulator and responder cells were cultured in a 200 μl volume in 96-well plate in the presence of drugs or medium, at 37° C., 5% CO2 in a humidified incubator, for 3, 4, and 5 days, respectively. In the last 8 h of incubation, cells were treated with 25 μl (3.8×10^10 Bq) of [^3H]Thymidine.
as §3

[4] = tested on: ConA-stimulated lymphocytes; experiment: IL-2 production from ConA-stimulated lymphocytes (ELISA); format: cell-based, mouse; conditions: without drug 3724.4
Description: Mice were sacrificed by cervical dislocation, and spleens were collected under sterile conditions then teased through a nylon mesh. Erythrocytes were lysed. Cells were washed and resuspended at 5×10^6/ml in RPMI-1640 media with 10% FBS.
1 ml of spleen cells were treated with or without ConA (5 μg/ml) or Sac (1:10000) and in the presence or absence of drugs in a final volume of 2 ml.
After 24 h culture at 37° C., 5% CO2 in a humidified incubator, cell-free supernatant was collected and frozen at −20° C. for ELISA.
IL-2, IL-12p40, IL-10, and IFN-γ levels were determined by Enzyme Linked Immuno Sorbance Assay (ELISA). TMB was taken as the enzyme substrate. The absorbance was measured at 450/570 nm by BioRad microplate reader. The amount of cytokines in sample supernatants were calculated based on standard curve using standard murine cytokines (rIL-2, rIL-12, rIL-10, and rIFN-γ).

[5] = tested on: HL-60 (human myeloblastic); experiment: Tumor cell proliferation, HL-60; format: cell-based; conditions: read-out: Inhibitory effect on tumor cell proliferation IC50
[6] = tested on: SGC-7901 (human gastric adenocarcinoma cell); experiment: Tumor cell proliferation, SGC-7901; format: cell-based; conditions: read-out: Inhibitory effect on tumor cell proliferation IC50
[7] = tested on: WI-38 (human lung fibroblasts); experiment: Cell proliferation, WI-38; format: cell-based; conditions: read-out: Inhibitory effect on tumor cell proliferation IC50
rat adjuvant arthritis [8] = experiment: Rat adjuvant arthritis (AA), therapeutic effect; format: in vivo; conditions: i.p. for 14 days from day 19; especially at 2 mg/Kg/d
Description: Rats were immunized on day 0 by intradermal injection of Complete Freund's adjuvant (CFA), containing 10 mg heat-inactivated BCG in 1 ml paraffin oil, into the left hind paw in 0.1 ml for each rat. Inflammatory polyarthritis was induced in all immunized rats. Swelling in left paw and polyarthritic symptoms were seen from day 1, lasted for 4 days, and then diminished. Swelling in the same paw occurred again from day 8, reached the peak at day 16. The secondary symptoms, including the right hind paw swelling and polyarthritis, were seen from day 12. The polyarthritis severity was graded on a scale of 0-4: 0=no swelling; 1=isolated phalanx joint involvement; 2=involvement of phalanx joint and digits; 3=involvement of the entire region down to the ankle; 4=involvement of entire paw, including ankle.
Right hind paw volume was determined before immunization (basic value, day 0) and repeated every 3 days. Animals were sacrificed on day 15, and thymus and spleen were harvested for thymus and spleen index assessment. Result: The secondary symptoms were established when the right hind paw severely swelled 19 days after adjuvant injection. […] Comparing with AA model rat, LLDT-8 treatment, especially at dose of 2 mg/Kg/d, markedly withdrew the symptoms (FIG. 16 and FIG. 17).

T lymphocyte = experiment: ConA induced T-lymphocyte proliferation ([3H]thymidine); format: cell-based, mouse
Description: as §1, §2, §3

rat adjuvant arthritis [9] = experiment: Rat adjuvant arthritis (AA), drug prevention; format: in vivo
Description: SD rats were immunized on day 0 by intradermal injection of Complete Freund's adjuvant (CFA), containing 10 mg heat-inactivated BCG in 1 ml paraffin oil, into the left hind paw in 0.1 ml for each rat. Right hind paw volume was determined before immunization (basic value, day 0) and repeated every 4 days from day 12. The polyarthritis severity was graded on a scale of 0-4: 0=no swelling; 1=isolated phalanx joint involvement; 2=involvement of phalanx joint and digits; 3=involvement of the entire region down to the ankle; 4=involvement of entire paw, including ankle. The maximum joint score was 16 for each rat.
Lymphocyte proliferation assay: Splenocytes were prepared aseptically from AA rat at day 28 and resuspended in RPMI-1640 medium supplemented with 10% fetal bovine serum.
5×10^5 cells each well were inoculated into 96-well plate with ConA or LPS in a final volume of 200 μl. Cells were cultured in 5% CO2 incubator at 37° C. for 48 h. Cells were pulsed with 1.9×10^10 Bq/well of [^3H]-thymidine 7-8 h before harvest. After the culture finished, cells were harvested onto glass fiber filters and the incorporated radioactivity was counted by a Beta Scintillator (MicroBeta Trilux, PerkinElmer Life Sciences).

CC(C)[C@]12O[C@H]1[C@@H]1O[C@]13[C@]1(O[C@H]1C[C@@]1(O)C4=C(CC[C@]31C)C(=O)OC4)[C@@H]2O [LLDT-8, (5R)-5-hydroxytriptolide]
suppressive effect on CIA at lower doses ([1]; 0.2 and 0.04 mg/Kg/d, dose-dependent): Suppressive effect was also observed | Anti-collagen specific antibody levels ([1]; compared with untreated CIA mice): reduced dose-dependently | severity and incidence of CIA ([1]; i.p. 1 mg/Kg/d, compared with untreated CIA mice): effectively reduced severity and incidence of CIA | ED50 for inhibiting B lymphocyte proliferation induced by LPS (B lymphocyte; 60 h): 0.0598 µg/mL | pEC50 (B lymphocyte; 60 h, read-out: ED50 for inhibiting B lymphocyte proliferation induced by LPS): 6.80 | more potent inhibitory activity than CsA (B lymphocyte proliferation) (B lymphocyte; compared with CsA): about 4.3 fold | pIC50 [2]: 6.66 | ED50 (MLR response) ([3]; C57BL/6 against Balb/c): 0.0006 µg/mL (≈ 1.59 nM) | pEC50 ([3]; C57BL/6 against Balb/c, read-out: ED50 (MLR response)): 8.80 | potency higher than CsA (MLR) ([3]; compared with CsA): about 2.5 fold | IL-2 production by lymphocytes stimulated with ConA, Mean Value ([4]; 0.3 nM): 3857.2 pg/mL | IL-2 production by lymphocytes stimulated with ConA, Mean Value ([4]; 3 nM): 3494.2 pg/mL | IL-2 production by lymphocytes stimulated with ConA, Mean Value ([4]; 30 nM): 2872.7 pg/mL | pIC50 [5]: 7.09 | pIC50 [6]: 7.37 | pIC50 [7]: 6.32 | polyarthritic symptoms (therapeutic) (rat adjuvant arthritis [8]): effectively cured the polyarthritic symptoms | ED50 for inhibiting T lymphocyte proliferation induced by ConA (T lymphocyte; 48 h): 0.05812 µg/mL | pEC50 (T lymphocyte; 48 h, read-out: ED50 for inhibiting T lymphocyte proliferation induced by ConA): 6.81 | inhibitory activity weaker than CsA (T lymphocyte proliferation) (T lymphocyte; compared with CsA): about 5.4 fold | body weight decrease in AA rat (rat adjuvant arthritis [9]; LLDT-8 3, 1 and 0.2 mg/Kg/d, CsA 10 mg/Kg/d): abrogation of body weight decrease | immune cell infiltration, synovial tissue proliferation, cartilage erosion (rat adjuvant arthritis [9]; compared with AA model group): marked decrease of immune cell infiltration, smaller degree of synovial tissue proliferation, and less cartilage erosion | right hind paw swelling and polyarthritic symptoms (rat adjuvant arthritis [9]; i.p. day −2 to day 28, LLDT-8 3, 1 and 0.2 mg/Kg/d, CsA 10 mg/Kg/d): diminished the right hind paw swelling and polyarthritic symptoms | polyarthritis severity (rat adjuvant arthritis [9]; score 0-4 per paw): amelioration of established polyarthritis | proliferation of B splenocytes induced by LPS (rat adjuvant arthritis [9]; splenocytes from AA rat at day 28): inhibited the proliferation of B splenocytes induced by LPS
